Data: patent publication US10065943B2, “Pyrrolidine derivatives as angiotensin II type 2 antagonists” (NOVARTIS AG, priority 2015, dated 2018)

Key:
[1] = Human hepatocyte stability assay; type: in vitro ADME; conditions: cryopreserved hepatocytes, 1 μM test compound, 0.5 million cells/mL, pH 7.4, 37° C., 60 min; for half-life at 1 μM: read-out: T½
Method: A human hepatocyte (cryopreserved) incubation mixture containing, 0.5 million cells/mL and phosphate buffered saline (pH 7.4) was pre-incubated at 37° C. and the reaction then initiated by the addition of 1 μM test compound. The incubations were performed in duplicate. The final organic concentration was 1% (consisting of 90% acetonitrile and 10% DMSO). Positive control markers for Phase I and II metabolism were included. Samples were removed at 6 time-points over 60 min and each reaction terminated by the addition of methanol containing internal standard. After vortexing and centrifugation, the resultant supernatant was analysed by UPLC-MS.
Intrinsic clearance is calculated from the resulting concentration-time profile.
Where C(t) is the compound concentration at time t, C(0) is the starting concentration and k is the elimination rate constant.
The ln(concentration) vs time profile can be mathematically described by: ln C(t)=ln C(0)−kt
Where k represents the slope of the regression line.
Solving for k results in:
Once k is known, half-life (t½) can be calculated using: […]
Furthermore, CLint can be calculated by introducing the cell density ([cell]) in 10^6/ml: […]

human AT2 receptor = biological target: T1, human AT2 receptor (Homo sapiens, UniProt P50052); test: AT2 receptor binding ([125I]CGP 42112A displacement, CHO-K1 membranes); conditions: [125I]CGP 42112A 0.05 nM, membranes of CHO-K1 cells expressing human AT2 receptor; Ki from IC50 by Cheng-Prussoff equation; read-out: Ki
T1 construct: membranes prepared in house
T1 sequence (P50052 1-363): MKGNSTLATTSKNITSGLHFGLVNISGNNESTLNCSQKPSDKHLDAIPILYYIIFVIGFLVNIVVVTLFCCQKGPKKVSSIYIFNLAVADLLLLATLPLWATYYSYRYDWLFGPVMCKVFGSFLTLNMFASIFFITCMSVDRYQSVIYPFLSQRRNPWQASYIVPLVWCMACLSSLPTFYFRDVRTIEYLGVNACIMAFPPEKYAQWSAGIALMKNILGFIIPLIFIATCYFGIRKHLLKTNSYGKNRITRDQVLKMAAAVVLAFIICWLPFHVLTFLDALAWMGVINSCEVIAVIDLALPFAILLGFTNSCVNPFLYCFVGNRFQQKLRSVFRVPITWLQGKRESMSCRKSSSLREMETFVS
From the text: Reagents were purchased from Sigma-Aldrich, unless otherwise specified. Dialyzed fetal bovine serum (FBS) was from Life Technologies (cat. no. 10073772). Valiscreen® human angiotensin AT2 receptor cell line (cat. no. ES-070-C), [^125I]CGP 42112A (cat. no. NEX324025UC) and MicroScint™ 40 (cat. no. 6013641) were purchased from PerkinElmer. CGP 42112A (cat. no. 2569) and PD 123,319 ditrifluoroacetate (cat. no. 1361) were from Tocris Biosciences.
• 1. Growth medium • EX-CELL® CHO DHFR^− medium • 10% FBS, dialysed • 1 mM sodium pyruvate • 2 mM L-glutamine • 2. Harvesting buffer • PBS • 2 mM EDTA • 3. Suspension buffer • 50 mM Tris-HCl, pH 7.4 • 10 mM EDTA • 4. Resuspension buffer • 50 mM Tris-HCl, pH 7.4 • 0.1 mM EDTA • 0.1% sucrose • 5. Binding assay buffer • 50 mM Tris-HCl, pH 7.4 • 5 mM MgCl2 • 1 mM EDTA • 0.1% gelatin • 6. Wash buffer • 50 mM Tris-HCl, pH 7.4 Procedure for Membrane Preparation • Valiscreen® CHO-K1 cells stably expressing the human AT2 receptor were cultured in growth medium. • Cells were seeded into T-175 flasks and grown to 70-80% confluence. • Medium was removed from confluent flasks and cells were washed with warm PBS. • Cells were harvested by incubating with harvesting buffer for 10 min at 37° C., and then transferred to a centrifuge tube on ice. • Cells were centrifuged at 200 g for 5 min at 4° C. • Cell pellets were homogenised in ice-cold suspension buffer. • Homogenates were centrifuged at 40,000 g for 15 min at 4° C. • Pellets were resuspended in ice-cold resuspension buffer and centrifuged at 40,000 g for 15 min at 4° C. • Final pellets were homogenised in ice-cold resuspension buffer. • Protein concentrations were determined by BCA assay method with BSA as standard. Compound Preparation
Compounds were prepared from 10 mM stock solutions in 100% DMSO. Dilutions were made using electronic multichannel pipettes.
• Compounds dilutions were prepared in 100% DMSO at 100× final assay concentration. • Compounds were diluted in 100% DMSO to the appropriate maximal concentration. • 30 μL compound was added to row A. • 21.6 μL of 100% DMSO was added to rows B-H. • Transfer 10 μL from row A into row B (half log dilution). • Transfer 10 μL from row B into row C (half log dilution). • Transfer 10 μL from row C into row D (half log dilution). • Transfer 10 μL from row D into row E (half log dilution). • Transfer 10 μL from row E into row F (half log dilution). • Transfer 10 μL from row F into row G (half log dilution). • Transfer 10 μL from row G into row H (half log dilution). Working Plate Preparation (96-Well Plate) • Compounds were diluted 10-fold in assay buffer. • 10 μL compound solution from dose plate was transferred to corresponding well of working plate. • 90 μL assay buffer was added to the wells of working plate. • Working solutions contained 10% DMSO in assay buffer (1% DMSO final assay concentration). Controls • Total binding (high control) was determined in the absence of unlabelled ligand. A solution of 10% DMSO in assay buffer was prepared. • Non-specific binding (low control) was determined in the presence of a vast excess (10 μM) of PD 123,319. 1 mM stock solution of PD 123,319 in water was diluted 10-fold with 10% DMSO in assay buffer. Assay Plate Preparation (96-Well Plate)
15 μL compound solution was transferred to duplicate wells of assay plate. 5 compounds were tested per plate. 15 μL control solutions were transferred to columns 1 and 12 of assay plate.

Row | SMILES | hepatocyte CLint at 1 μM [1] [µL/min/1e6 cells] | half-life at 1 μM [1] [h] | Ki (human AT2 receptor) [nM]
1 | C[C@@]1(C(=O)O)C[C@H](N2CCCOc3cc(F)c(F)cc32)CN1C(=O)C(c1ccccc1)c1ccccc1 [Compound 32, (2S,4S)-4-(7,8-Difluoro-3,4-dihydrobenzo[b][1,4]oxazepin-5(2H)-yl)-1-(2,2-diphenylacetyl)-2-methylpyrrolidine-2-carboxylic acid] | < 3 | > 7.67 | 3.7
2 | O=C(NS(=O)(=O)C1CC1)[C@@H]1C[C@H](N2CCCOc3cc(F)c(F)cc32)CN1C(=O)C(c1ccccc1)c1ccccc1 [Compound 36, (2S,4S)—N-(Cyclopropylsulfonyl)-4-(7,8-difluoro-3,4-dihydrobenzo[b][1,4]oxazepin-5(2H)-yl)-1-(2,2-diphenylacetyl)pyrrolidine-2-carboxamide] | < 3 | > 7.67 | 2.6
3 | O=C(O)[C@@H]1C[C@@H](N2CCCOc3ccc(F)cc32)CN1C(=O)C(c1ccccc1)c1ccccc1 [Compound 25, (2S,4R)-1-(2,2-Diphenylacetyl)-4-(7-fluoro-3,4-dihydrobenzo[b][1,4]oxazepin-5(2H)-yl)pyrrolidine-2-carboxylic acid] |  |  | 1.6
